Data from paper PMC11274883, “Anticancer Effect of Pt^[sequence], Pt^II5MESS, Pt^II56MESS and Their Platinum(IV)-Dihydroxy Derivatives against Triple-Negative Breast Cancer and Cisplatin-Resistant Colorectal Cancer” (Cancers, 2024).

Assays:
Assay type in all cases: cell-based
HT29 spheroids = assay: 3D bioprinted spheroid cytotoxicity (WST-1); details: 72 h, mean ± SEM
Text: (§1) To evaluate the cytotoxic effect of platinum(II) and (IV) complexes in 3D cell culture, MDA−MB−231 or HT29 cells were used to bioprint networks or spheroids with the non-contact drop-on-demand 3D RASTRUM bioprinter (Inventia Life Science, Alexandria, NSW, Australia). The 3D cultures use two constituents: bioink and activator. Cell pellets (2 × 10^6 cells) were resuspended in an activator reagent which forms an instant gel after its addition to the bioink by the bioprinter. The 3D large plug cell model with polyethylene glycol bioinks formulated to mimic the properties of in vivo tissue were chosen as follows. Matrix Px02.31 (activator F177 and bioink F242 with RGD: Fibronectin) was used for MDA−MB−231 3D embedded networks, Px02.00 (activator F177 and bioink F119 without RGD additives, Table S1) was used for MDA−MB−231 spheroids and matrix #Px02.09 (activator F177 and bioink F236 with adhesion peptides including, RGD: Fibronectin, and GFOGER: collagen type I to recapitulate rich in vivo tissue extracellular environments) was used for HT29 spheroids (Inventia Life Science) (Table S1). Each cell line was printed at 10,000 cells/well and loaded with the bioink fluids into the selected printer cartridge. After the automated priming of all fluids into the printer nozzles, each cell line was individually printed on tissue culture plates (Nunc^TM MicroWell^TM 96-Well, Nunclon Delta-Treated, Flat-Bottom Microplate, ThermoFisher #167008), with RASTRUM creating the 3D Large Plug across the 96-well plate. Following completion of the print run, 200 μL DMEM culture medium was added to each well using multichannel pipettes. The plate was then incubated for 7 days (humidified incubator with 5% CO2 at 37 °C) for compact and homogenous spheroid formation before the cytotoxicity assay. When the spheroids developed, post-7-day incubation, media was removed and replaced with 100 µL DMEM. […] Cytotoxicity was then assessed using the WST-1 assay as previously described in Section 2.3.

MDA−MB−231 spheroids = assay: 3D bioprinted spheroid cytotoxicity (WST-1); details: 72 h, mean ± SEM
Text: as §1

HT29 cells = assay: Cellular uptake of Pt by ICP-MS; details: for Intracellular Concentration: HT29, 3 µM; for Intracellular/extracellular ratio: HT29, extracellular 3 µM
Procedure: (§2) A final concentration of 10^6 cells/well of MDA−MB−231 and HT29 cells were seeded in 6-well plates and incubated overnight to adhere. The cells were then treated with a final concentration of 3 µM of either Pt^II or Pt^IV complexes. After 0, 0.5, 1, 3, 6, 12, 24 or 30 h, the medium was removed, and the cells were washed three times with cold PBS and allowed to dry. Then, 400 µL of 69% HNO3 (Baseline grade nitric acid with PPB level reported impurities, Seastar Chemicals, Sidney, BC, Canada) was added to each well for 90 min to ensure complete digestion. […] Iridium 193 (^193Ir) was mixed online and introduced into the ICP-MS to check uptake efficiency and matrix interference. All ICP-MS parameters are described in Table S2 and elaborated in Method S3. The results represent an average of three different experiments run in triplicate (±SEM) and expressed as nmol/10^6 cells or µM/cell. Quantification of the cellular uptake of Pt was based on external standards (Certified Standard from Sigma-Aldrich, VIC, Australia) containing Internal standard Ir.
(§3) Method S3. Cellular Uptake of Platinum(II) and (IV) complexes
(§4) A final concentration of 10^6 cells/well of MDA−MB−231 and HT29 cells were seeded in 6-well plates and incubated overnight to adhere. The cells were then treated with a final concentration of 3 µM of either PtII or PtIV complexes. After 0, 0.5, 1, 3, 6, 12, 24 or 30 h, the medium was removed, and the cells were washed three times with cold PBS and allowed to dry. Then, 400 µL of 69% HNO3 (Baseline grade nitric acid with Instrument Quality Grade Nitric acid with ppb level reported impurities, Seastar Chemicals, Sidney, Canada) was added to each well for 90 mins to ensure complete digestion. The digests were then moved to trace -metal free 15 mL centrifuge tubes […]
(§5) concentration of 3.5-4%. Iridium 193 (193Ir), selected as internal standard, has similar first ionisation potential and mass to Platinum 195 (195Pt). A concentration of 50 ppb 193Ir in 2% HNO3 solution was chosen for the Perkin Elmer NexION® Inductively Coupled Plasma Mass Spectrometer (ICP-MS) as it produced a steady state signal intensity of 600-800K counts per second. Mixing and injection of sample and internal standard solution was carried out using an ESI 7 port Valve system (Elemental Scientific, USA). A high-quality Solvent Flex 2 stop pump with 0.38 mm ID tubing was used in conjunction with the ICP-MS’s Peristaltic pump set at 20 […]
(§6) standard both, at 0.25 mL/min) being 0.5 mL/min. The ICP-MS was tuned to high sensitivity settings to facilitate detection of low Pt concentrations in samples. This was done by adjusting the nebuliser gas flow between […] to achieve maximum Indium 115 intensity whilst maintaining an acceptable average oxide and doubly charged ratio of 1.64-2.24% and 1.17-1.69% respectively. The analysis method was set to peak hopping mode with a dwell time of […] and 45 sweeps through the mass spectrum per sample read. […]
(§7) peak integration time of 4500 milliseconds and enabled the collection of numerous data points for peak integration thereby increasing accuracy. The ICP-MS was tuned daily, and its performance optimised to a set of suppliers recommended settings. Analysis was only carried out when optimal oxide and doubly charged ratios with high ionic sensitivity was achieved. All ICP-MS parameters are described in Table S2. The results represent an average of three different experiments run in triplicates (± SEM) and expressed as nmol/106 cells or µM/cell. Quantification of the cellular uptake of Pt was based on external standards (Certified Standard from Sigma-Aldrich NSW, Australia) containing Internal standard Ir. […]

MDA−MB−231 cells = assay: Cellular uptake of Pt by ICP-MS; details: for Intracellular Concentration: MDA−MB−231, 3 µM; for Intracellular/extracellular ratio: MDA−MB−231, extracellular 3 µM
Procedure: as §2, §3, §4, §5, §6, §7

Row | Compound | IC50 (HT29 spheroids) | IC50 (MDA−MB−231 spheroids) | Intracellular Concentration (HT29 cells; 0 h) | Intracellular Concentration (HT29 cells; 0.5 h) | Intracellular Concentration (HT29 cells; 1 h) | Intracellular Concentration (HT29 cells; 3 h) | Intracellular Concentration (HT29 cells; 6 h) | Intracellular Concentration (HT29 cells; 12 h) | Intracellular Concentration (HT29 cells; 24 h) | Intracellular Concentration (HT29 cells; 30 h) | Intracellular/extracellular ratio (HT29 cells; 0 h) | Intracellular/extracellular ratio (HT29 cells; 0.5 h) | Intracellular/extracellular ratio (HT29 cells; 1 h) | Intracellular/extracellular ratio (HT29 cells; 3 h) | Intracellular/extracellular ratio (HT29 cells; 6 h) | Intracellular/extracellular ratio (HT29 cells; 12 h) | Intracellular/extracellular ratio (HT29 cells; 24 h) | Intracellular Concentration (MDA−MB−231 cells; 0 h) | Intracellular Concentration (MDA−MB−231 cells; 0.5 h) | Intracellular Concentration (MDA−MB−231 cells; 1 h) | other results
1 | Cc1cc2cccnc2c2ncccc12.N[C@H]1CCCC[C@@H]1N.O=[N+]([O-])[O-].O=[N+]([O-])[O-].[OH][Pt+2][OH] [Pt^IV5MESS(OH)2, [Pt(5-methyl-1,10-phenanthroline)(1S,2S-diaminocyclohexane)(dihydroxy)](NO3)2] | 8.46 ± 1.23 µM | 7.99 ± 1.3 µM | 0.15 nmol/10^6 cells | 0.17 nmol/10^6 cells | 0.28 nmol/10^6 cells | 0.33 nmol/10^6 cells | 0.66 nmol/10^6 cells | 5.05 nmol/10^6 cells | 7.37 nmol/10^6 cells | 7.85 nmol/10^6 cells | 25.03 | 26.29 | 44.59 | 52.25 | 104.08 | 793.61 | 1158.37 | 0.16 nmol/10^6 cells | 0.22 nmol/10^6 cells | 0.17 nmol/10^6 cells | Intracellular/extracellular ratio (HT29 cells; 30 h): 1234.08; Intracellular Concentration (MDA−MB−231 cells; 3 h): 0.25 nmol/10^6 cells; Intracellular Concentration (MDA−MB−231 cells; 6 h): 0.29 nmol/10^6 cells; Intracellular Concentration (MDA−MB−231 cells; 12 h): 1.19 nmol/10^6 cells; Intracellular Concentration (MDA−MB−231 cells; 24 h): 1.31 nmol/10^6 cells; Intracellular Concentration (MDA−MB−231 cells; 30 h): 2.37 nmol/10^6 cells; Intracellular/extracellular ratio (MDA−MB−231 cells; 0 h): 26.14; Intracellular/extracellular ratio (MDA−MB−231 cells; 0.5 h): 35.23; Intracellular/extracellular ratio (MDA−MB−231 cells; 1 h): 27.69; Intracellular/extracellular ratio (MDA−MB−231 cells; 3 h): 40.45; Intracellular/extracellular ratio (MDA−MB−231 cells; 6 h): 46.47; Intracellular/extracellular ratio (MDA−MB−231 cells; 12 h): 186.97; Intracellular/extracellular ratio (MDA−MB−231 cells; 24 h): 205.97; Intracellular/extracellular ratio (MDA−MB−231 cells; 30 h): 371.97
2 | N[C@H]1CCCC[C@@H]1N.O=[N+]([O-])[O-].O=[N+]([O-])[O-].[Pt+2].c1cnc2c(c1)ccc1cccnc12 [[Pt(1,10-phenanthroline)(1S,2S-diaminocyclohexane)](NO3)2] | 3.93 ± 1.46 µM | 5.44 ± 1.35 µM | 0.61 nmol/10^6 cells | 0.85 nmol/10^6 cells | 0.72 nmol/10^6 cells | 2.77 nmol/10^6 cells | 5.95 nmol/10^6 cells | 12.59 nmol/10^6 cells | 15.26 nmol/10^6 cells | 16.99 nmol/10^6 cells | 95.39 | 133.55 | 112.44 | 435.59 | 935.29 | 1979.17 | 2397.59 | 0.40 nmol/10^6 cells | 0.46 nmol/10^6 cells | 0.80 nmol/10^6 cells | Intracellular Concentration (MDA−MB−231 cells; 3 h): 0.81 nmol/10^6 cells; Intracellular Concentration (MDA−MB−231 cells; 6 h): 1.03 nmol/10^6 cells; Intracellular Concentration (MDA−MB−231 cells; 12 h): 2.59 nmol/10^6 cells; Intracellular Concentration (MDA−MB−231 cells; 24 h): 3.01 nmol/10^6 cells; Intracellular Concentration (MDA−MB−231 cells; 30 h): 4.79 nmol/10^6 cells; Intracellular/extracellular ratio (MDA−MB−231 cells; 0 h): 63.45; Intracellular/extracellular ratio (MDA−MB−231 cells; 0.5 h): 72.01; Intracellular/extracellular ratio (MDA−MB−231 cells; 1 h): 126.21; Intracellular/extracellular ratio (MDA−MB−231 cells; 3 h): 127.55; Intracellular/extracellular ratio (MDA−MB−231 cells; 6 h): 161.09; Intracellular/extracellular ratio (MDA−MB−231 cells; 12 h): 407.32; Intracellular/extracellular ratio (MDA−MB−231 cells; 24 h): 473.33; Intracellular/extracellular ratio (MDA−MB−231 cells; 30 h): 752.93
